Assay: xn = mol fraction of the nth substance listed
Settings: Liquid, Vibrating tube method

CCCCCCCCCC [decane] + CCCCCCCC
mass density [kg/m3]
Settings | x2 = 0.0616 | x2 = 0.2801 | x2 = 0.5314 | x2 = 0.7736
353.12 K, 10000 kPa | – | 687.61 | 680.99 | 673.43
353.12 K, 10990 kPa | 693.88 | 688.64 | 682.03 | 674.52
353.12 K, 12000 kPa | 694.85 | 689.64 | 683.07 | 675.55
353.12 K, 13000 kPa | 695.8 | 690.64 | 684.09 | 676.59
353.12 K, 14000 kPa | 696.76 | 691.6 | 685.09 | 677.61
353.12 K, 15000 kPa | 697.7 | 692.59 | 686.08 | 678.66
353.12 K, 16000 kPa | 698.61 | 693.55 | 687.05 | 679.66
353.12 K, 17000 kPa | 699.52 | 694.46 | 688 | 680.68
353.12 K, 18000 kPa | 700.43 | 695.35 | 688.93 | 681.63
353.12 K, 19000 kPa | 701.32 | 696.27 | 689.85 | 682.58
353.12 K, 20000 kPa | 702.19 | 697.16 | 690.77 | 683.51
353.12 K, 21000 kPa | 703.05 | 698.02 | 691.66 | 684.41
353.12 K, 22000 kPa | 703.89 | 698.88 | 692.54 | 685.32
353.12 K, 23000 kPa | 704.72 | 699.72 | 693.39 | 686.21
353.12 K, 24000 kPa | 705.52 | 700.52 | 694.23 | 687.06
353.12 K, 25000 kPa | 706.29 | 701.34 | 695.07 | 687.92
363.02 K, 1000 kPa | – | – | 662.89 | –
363.02 K, 2000 kPa | – | – | 664.16 | –
363.02 K, 3000 kPa | – | – | 665.39 | –
363.02 K, 4000 kPa | – | – | 666.61 | –
363.02 K, 5000 kPa | – | – | 667.85 | –
363.02 K, 6000 kPa | – | – | 669.05 | –
363.02 K, 7000 kPa | – | – | 670.24 | –
363.02 K, 8000 kPa | – | – | 671.39 | –
363.02 K, 9000 kPa | – | – | 672.53 | –
363.02 K, 10000 kPa | – | – | 673.66 | –
363.02 K, 10990 kPa | – | – | 674.79 | –
363.02 K, 12000 kPa | – | – | 675.87 | –
363.02 K, 13000 kPa | – | – | 676.95 | –
363.02 K, 14000 kPa | – | – | 678.01 | –
363.02 K, 15000 kPa | – | – | 679.06 | –
363.02 K, 16000 kPa | – | – | 680.09 | –
363.02 K, 17000 kPa | – | – | 681.1 | –
363.02 K, 18000 kPa | – | – | 682.1 | –
363.02 K, 19000 kPa | – | – | 683.1 | –
363.02 K, 20000 kPa | – | – | 684.05 | –
363.02 K, 21000 kPa | – | – | 685 | –
363.02 K, 22000 kPa | – | – | 685.91 | –
363.02 K, 23000 kPa | – | – | 686.82 | –
363.02 K, 24000 kPa | – | – | 687.69 | –
363.02 K, 25000 kPa | – | – | 688.57 | –
363.03 K, 1000 kPa | 675.72 | – | – | –
363.03 K, 2000 kPa | 676.86 | – | – | –
363.03 K, 3000 kPa | 678.03 | – | – | –
363.03 K, 4000 kPa | 679.17 | – | – | –
363.03 K, 5000 kPa | 680.28 | – | – | –
363.03 K, 6000 kPa | 681.38 | – | – | –

Source: the NIST ThermoML archive (doi:10.1016/j.jct.2011.08.016)
